{"source": "paper PMC6368337", "about": "“GluClR-mediated inhibitory postsynaptic currents reveal targets for ivermectin and potential mechanisms of ivermectin resistance” (PLoS Pathogens, 2019)", "key": {"[1]": {"biological_target": "T1, αβ (1:1) GluClRs (Haemonchus contortus, UniProt O46124+P91730)", "T1 sequence (P91730 19-432)": "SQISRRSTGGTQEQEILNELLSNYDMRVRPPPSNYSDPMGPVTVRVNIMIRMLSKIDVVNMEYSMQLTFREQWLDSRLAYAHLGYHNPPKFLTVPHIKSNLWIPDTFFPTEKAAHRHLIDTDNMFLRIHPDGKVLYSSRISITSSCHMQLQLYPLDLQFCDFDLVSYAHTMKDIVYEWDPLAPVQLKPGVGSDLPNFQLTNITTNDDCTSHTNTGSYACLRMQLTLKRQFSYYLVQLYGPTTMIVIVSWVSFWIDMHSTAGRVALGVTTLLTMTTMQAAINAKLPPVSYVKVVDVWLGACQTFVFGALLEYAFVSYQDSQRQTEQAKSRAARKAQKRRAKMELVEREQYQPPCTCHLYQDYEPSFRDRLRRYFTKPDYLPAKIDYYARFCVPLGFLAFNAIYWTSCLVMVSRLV", "T1 sequence (O46124 entry or part of it)": "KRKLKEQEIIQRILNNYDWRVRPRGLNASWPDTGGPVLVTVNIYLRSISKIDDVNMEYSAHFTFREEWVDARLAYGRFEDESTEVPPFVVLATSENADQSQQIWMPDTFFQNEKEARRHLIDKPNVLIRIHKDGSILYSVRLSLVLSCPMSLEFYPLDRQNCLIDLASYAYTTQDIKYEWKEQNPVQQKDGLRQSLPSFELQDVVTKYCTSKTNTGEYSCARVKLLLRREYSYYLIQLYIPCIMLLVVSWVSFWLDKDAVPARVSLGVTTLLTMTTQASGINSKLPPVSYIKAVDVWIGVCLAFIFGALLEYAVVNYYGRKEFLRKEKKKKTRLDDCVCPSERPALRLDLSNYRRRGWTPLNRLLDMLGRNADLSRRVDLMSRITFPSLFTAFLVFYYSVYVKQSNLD", "experiment": "IPSC recording in HEK293-neuron heteroculture, αβ (1:1) GluClRs", "format": "cell-based, H. contortus", "conditions": "5 nM IVM", "procedure": "(§1) cDNAs encoding the α (avr-14b) (pcDNA 3.1+) or β (pUNIV) GluClR subunits of H. contortus were nuclear injected into oocytes (NASCO, WI USA) or transfected into HEK293AD cells (CellBank Australia) using a calcium phosphate-DNA co-precipitate method. Synapse formation between neurons and HEK293 cells was promoted by co-transfecting neuroligin 2A or 1B and the cDNA encoding CD4 surface antigen was also added to the transfection mixture so as to identify transfected cells. The oocytes and HEK cells were used for experiments 2–3 days after the introduction of the cDNAs. All experiments were done at room temperature (22 ± 1°C).\nPrimary neuronal cultures were prepared from cortices of E18 rat embryos, (University of Queensland Biological Services), which were triturated and plated at 100,000 cells per 18-mm poly-D-lysine-coated coverslip in DMEM with 10% fetal bovine serum. After 24 h the entire medium was replaced with Neurobasal medium that included 2% B27 and 1% GlutaMAX supplements. After one week half of this medium was replaced and the neurons were allowed to grow in vitro for 3–5 weeks before introducing the transfected HEK293 cells. Recordings of synaptic currents were done in whole-cell configuration at ‐70 mV using an Axopatch 200B amplifier (Molecular Devices), filtered at 5 kHz and digitized at 20 kHz using Clampex (pClamp 10 suite, Molecular Devices) via a Digidata 1440A digitizer."}, "[2]": {"biological_target": "T1, αβ (1:1) GluClRs", "experiment": "Two-electrode voltage clamp in oocytes, αβ (1:1) GluClRs", "format": "cell-based, H. contortus", "procedure": "as §1\nXenopus laevis oocytes were harvested by surgical incision. The oocytes were then defolliculated with 1.5 mg/ml collagenase for 2 hours. Free oocytes were rinsed with calcium-free OR-2 solution containing (in mM) 82.5 NaCl, 2 KCl, 1 MgCl2, 5 HEPES, pH 7.4 and mature stage V or VI oocytes were isolated for experiments. The DNAs coding for α and β subunits were nuclear injected into the oocytes using a Nanoliter 2000 microinjector (WPI Inc) at a ratio of (α:β), 1:0, 0:1, 1:1 and 1:50. The total amount of injected DNA in all combinations was 400 ng ml^−1, including the 1:50 (α:β) combination (8 ng of DNA encoding the α and 392 ng of DNA encoding β subunits). Injected oocytes were incubated in ND96 storage solution (in mM) 96 NaCl, 2 KCl, 1 MgCl2.6H2O, 1.8 CaCl2, 5 HEPES, 50 μg ml^−1 gentamicin, 2.5 sodium pyruvate, 0.5 theophylline, pH 7.4 at 16°C for 2–3 days before experiment.\nFor the two-electrode voltage clamp recordings, each oocyte was secured in a cell bath that was continually perfused with ND96 recording solution (ND96 storage solution without pyruvate, theophylline and gentamicin). […] The two microelectrodes contained 3 M KCl and had resistances of 0.2–2 MΩ. Recordings were done using Clampex 10.2 software (Molecular Devices) at a clamped voltage of −40 mV. Currents were low-pass filtered at 200 Hz, sampled at 2 kHz using a Gene Clamp 500B amplifier and digitised by a Digidata 1440A interface. The IVM (IVM B1a) concentration-response experiments were standardised by using an application protocol that consisted of applying increasing concentrations of IVM for, respectively, 3 min, 3 min, 3 min, 2 min, 1 min, 1 min and 0.5 min.\nGroup data were analysed in SigmaPlot 13.0 using one-way ANOVAs, where p < 0.05 was taken as the significance threshold and expressed as mean ± SEM. Tests for normally distributed data are built into the SigmaPlot software. Confocal images were captured and analysed with Zen 2012 SP2 (Zeiss) software. Oocyte concentration-response data were fit to a Hill equation to obtain an EC50 and Hill co-efficient for each oocyte recording. […] Single channel recordings were analysed in QuB software. […]"}}, "data": [{"smiles": "CC[C@H](C)[C@H]1O[C@]2(CC[C@@H]1C)C[C@@H]1C[C@@H](C/C=C(\\C)[C@@H](O[C@H]3C[C@H](OC)[C@@H](O[C@H]4C[C@H](OC)[C@@H](O)[C@H](C)O4)[C@H](C)O3)[C@@H](C)/C=C/C=C3\\CO[C@@H]4[C@H](O)C(C)=C[C@@H](C(=O)O1)[C@]34O)O2", "note": "[IVM, Ivermectin]", "values": [{"measurement": "IPSC activation (10–90% rise) time", "setting": "[1]; 15 minutes", "result": "10 ± 1", "unit": "ms"}, {"measurement": "peak IPSC amplitude", "setting": "[1]; 15 minutes", "result": "124 ± 18", "unit": "pA"}, {"measurement": "IPSC decay time constant", "setting": "[1]; 15 minutes after start of application, −70 mV", "result": "72 ± 4", "unit": "ms"}, {"measurement": "EC50", "setting": "[2]; EC50, oocytes, cDNA injection ratio α:β 1:1, −40 mV", "result": "86 ± 14", "unit": "nM"}, {"measurement": "Hill co-efficient", "setting": "[2]; oocytes, α:β 1:1, −40 mV", "result": "1.0 ± 0.1"}, {"measurement": "Emax", "setting": "[2]; read-out: maximal response, % of saturating glutamate response", "result": 26, "unit": "%"}]}]}
